This note sets out measurements from patent publication US9212168B2 (priority 2011, dated 2015).

The structures appear in SMILES notation. A value given as a limit tells only on which side of the number the result lay.

For one assay, the system named is HCV genotype 1a replicon. As to the kind of experiment: HCV genotype 1a replicon assay (NS3 protease activity readout). Type of assay: cell-based, hepatitis C virus. The following applies: HCV genotype 1a replicon. Here is the method: Assay 2: HCV Genotype 1a Replicon Assay
The HCV genotype 1a replicon cell line was obtained from Apath LLC (APC89; Huh7.5 cell background). This subgenomic replicon contains the N-terminus of the HCV core protein fused to the neomycin-resistance selectable marker. The EMCV IRES lies downstream and drives expression of the non-structural proteins NS3-NS5B. Compound potencies were determined using the NS3-specific protease activity in lysates as a measurement of compound inhibition of replicon levels.
Cells were grown at 37° C. in a 5% CO2 humidified incubator in DMEM (Invitrogen) with 10% FBS (HyClone), 1×NEAA (Invitrogen), 1× Pen-Strep (Invitrogen), and 850 μg/mL G418 (Invitrogen). On day 1 of the assay, cells were plated at 15,000 cells/well in black 96-well tissue culture plates (Costar) in 200 μL media lacking G418. Four hours later, once the cells had adhered, the media was removed and replaced with media (no G418) containing dose-responses of test compounds. Compounds were initially diluted in DMSO and then diluted another 200× in media to bring the final DMSO concentration down to 0.5%. The cells were incubated with test compounds for 48 or 72 hours. At the end of the incubation period, media and compound were removed from the plates.
To determine the NS3-specific protease activity in lysates, the cells were lysed at room temperature in 50 μL/well of 50 mM Hepes pH 7.5, 150 mM NaCl, 15% Glycerol, 0.15% Triton X-100, 10 mM DTT for 20 minutes with shaking. 50 μL of an NS3/4a protease-specific FRET substrate (Anaspec RET S1 Cat#22991) was then added to the wells at a final concentration of 15 μM. The plates were incubated at 37° C. for 20 minutes, which corresponds to a timepoint at which the protease activity is still in the linear phase. Protease activity was determined by measuring fluorescence (Excitation: 340 nm; Emission: 509 nm).
To analyze the data, the fluorescence was plotted vs. the compound concentration, and EC50 values were determined from a 4-parameter robust fit model using GraphPad Prism software.
On the technique in general: A replicon is a self-replicating genome or part of one, used to study replication in cells.
On to `COC(=O)NC(C(=O)N1CC(OC)CC1c1nc(-c2ccc(-c3cc(F)c(NC(=O)c4ccc(N5CCN(C(=O)C(C)(C)CO)CC5C)nc4)cc3OC(F)(F)F)cc2)c[nH]1)C(C)O` (centres unmarked) [Example 16-12], for which the “Genotype 1a” value is “C (C represents pEC50 between and 9 and about 10, (EC50 between 1 nM and 0.1 nM))”.
On the same count and under the same terms, the value for `COC(=O)N[C@H](C(=O)N1C[C@@H](O)C[C@H]1c1nc(-c2ccc(-c3ccc(NC(=O)c4ccc(N5CCN(C(=O)c6c[nH]cn6)C[C@H]5C)nc4)cc3)cc2)c[nH]1)C(C)C` [Example 26-2] was “B (B represents pEC50 between 8 and 9 (EC50 between 1 and 10 nM))”; that for `COC(=O)N[C@H](C(=O)N1C[C@@H](C)C[C@H]1c1nc(-c2ccc(-c3cc(Cl)c(NC(=O)c4ccc(N5CCN(C(=O)C6CC6)C[C@H]5C)nc4)cc3OC(F)(F)F)cc2)c[nH]1)C(C)C` [Example 1-42] was “D (D represents pEC50>10 (EC50<0.1 nM))”.
For the compound `COC(=O)N[C@H](C(=O)N1C[C@@H](C)C[C@H]1c1nc(-c2ccc(-c3ccc(C(=O)Nc4ccc(N5C[C@H](C)N(C(=O)[C@@H](C)NC(C)=O)C[C@H]5C)nc4)cc3OC(F)(F)F)cc2)c[nH]1)C(C)C` [Example 4-28], the “Genotype 1a” value is “D (D represents pEC50>10 (EC50<0.1 nM))”.
The same measure, in the same setting: next, `COC(=O)N[C@H](C(=O)N1C[C@@H](OC)C[C@H]1c1nc(-c2ccc(-c3ccc(C(=O)Nc4ccc(N5CCN(C(=O)[C@H]6CC6(C)C)C[C@H]5C)nc4)cc3)cc2)c[nH]1)C1CCOCC1` [Example 22-15]: “D (D represents pEC50>10 (EC50<0.1 nM))”.
On the same count and under the same terms, the value for `COC(=O)N[C@H](C(=O)N1C[C@@H](N(C)C)C[C@H]1c1nc(-c2ccc(-c3cc(Cl)c(NC(=O)c4ccc(N5CCN(C(=O)[C@H]6CC6(C)C)C[C@H]5C)nc4)cc3OC(F)(F)F)cc2)c[nH]1)C(C)C` [Example 2-6] was “D (D represents pEC50>10 (EC50<0.1 nM))”; that for `COC(=O)N[C@H](C(=O)N1C[C@@H](C)C[C@H]1c1nc(-c2ccc(-c3cc(Cl)c(NC(=O)c4ccc(N5CCN(C(=O)NC(C)C)C[C@H]5C)nc4)cc3OC(F)(F)F)cc2)c[nH]1)C(C)C` [Example 1-72] was “D (D represents pEC50>10 (EC50<0.1 nM))”.
Still for that read-out and setting: next, `COC(=O)N[C@H](C(=O)N1C[C@@H](N(C)C)C[C@H]1c1nc(-c2ccc(-c3cc(Cl)c(NC(=O)c4ccc(N5CCN(C(=O)C(C)(C)C)C[C@H]5C)nc4)cc3OC(F)(F)F)cc2)c[nH]1)C(C)C` [Example 2-7]: “C (C represents pEC50 between and 9 and about 10, (EC50 between 1 nM and 0.1 nM))”.
Consider `COC(=O)NC(C(=O)N1CC(OC)CC1c1nc(-c2ccc(-c3ccc(NC(=O)c4ccc(N5CCN(C(=O)C(C)(C)C)CC5C)nc4)cc3OC(F)(F)F)cc2)c[nH]1)C(C)OC` (centres unmarked) [Example 16-11], for which the “Genotype 1a” value is listed as “D (D represents pEC50>10 (EC50<0.1 nM))”.
Turning to `COC(=O)N[C@H](C(=O)N1C[C@@H](C)C[C@H]1c1nc(-c2ccc(-c3ccc(C(=O)Nc4ccc(N5C[C@H](C)N(C(=O)NC6CC6)C[C@H]5C)nc4)cc3OC(F)(F)F)cc2)c[nH]1)C(C)C` [Example 4-24], the “Genotype 1a” value was “C (C represents pEC50 between and 9 and about 10, (EC50 between 1 nM and 0.1 nM))”.
For `COC(=O)N[C@H](C(=O)N1C[C@@H](N(C)C)C[C@H]1c1nc(-c2ccc(-c3cc(Cl)c(NC(=O)c4ccc(N5CCN(C(=O)[C@H]6CC6(C)C)C[C@H]5C)nc4)cc3OC(F)(F)F)cc2)c(Cl)[nH]1)C(C)C` [Example 2-8], the “Genotype 1a” value was “D (D represents pEC50>10 (EC50<0.1 nM))”.
Turning to `COC(=O)NC(C(=O)N1CC(F)CC1c1nc(-c2ccc(-c3cc(Cl)c(NC(=O)c4ccc(N5CCN(C(=O)C(C)(C)C)CC5C)nc4)cc3OC(F)(F)F)cc2)c[nH]1)C1CCOCC1` (centres unmarked) [Example 29-1], the “Genotype 1a” value is on record as “D (D represents pEC50>10 (EC50<0.1 nM))”.
Consider `COC(=O)N[C@H](C(=O)N1[C@@H](C)CC[C@H]1c1nc(-c2ccc(-c3ccc(C(=O)Nc4ccc(N5CCN(C(=O)C(C)(C)C)C[C@H]5C)nc4)cc3OC(F)(F)F)cc2)c(Cl)[nH]1)C(C)C` [Example 18-2], for which the “Genotype 1a” value was “C (C represents pEC50 between and 9 and about 10, (EC50 between 1 nM and 0.1 nM))”.
Turning to `COC(=O)N[C@H](C(=O)N1C[C@@H](OC)C[C@H]1c1nc(-c2ccc(-c3cc(Cl)c(NC(=O)c4ccc(N5CCN(C(=O)C(C)(C)CO)C[C@H]5C)nc4)cc3C(F)(F)F)cc2)c[nH]1)C1CCCCC1` [Example 19-15], the “Genotype 1a” value is reported as “D (D represents pEC50>10 (EC50<0.1 nM))”.
Still for that read-out and setting: next, `COC(=O)N[C@H](C(=O)N1C[C@@H](N(C)C)C[C@H]1c1nc(-c2ccc(-c3ccc(NC(=O)c4ccc(N5CCN(C(=O)[C@H]6CC6(C)C)C[C@H]5C)nc4)cc3C)cc2)c[nH]1)C(C)C` [Example 2-4]: “D (D represents pEC50>10 (EC50<0.1 nM))”; `COC[C@H]1C[C@@H](c2nc(-c3ccc(-c4ccc(C(=O)Nc5ccc(N6CCN(C(=O)C(C)(C)C)C[C@H]6C)nc5)c(Cl)c4OC(F)(F)F)cc3)c[nH]2)N(C(=O)[C@@H](NC(=O)OC)C2CCOCC2)C1` [Example 25-6]: “C (C represents pEC50 between and 9 and about 10, (EC50 between 1 nM and 0.1 nM))”; `COC(=O)N[C@H](C(=O)N1C[C@@H](C)C[C@H]1c1nc(-c2ccc(-c3cc(Cl)c(NC(=O)c4ccc(N5CCN(C(=O)C6CC67CC7)C[C@H]5C)nc4)cc3OC(F)(F)F)cc2)c[nH]1)C(C)C` (some centres unmarked) [Example 1-87]: “D (D represents pEC50>10 (EC50<0.1 nM))”.
Still for that read-out and setting: next, `COC(=O)N[C@H](C(=O)N1C[C@@H](OC)C[C@H]1c1nc(-c2ccc(-c3cc(Cl)c(NC(=O)c4ccc(N5C[C@H](C)N(C(=O)C6CC6)C[C@H]5C)nc4)cc3OC(F)(F)F)cc2)c[nH]1)C1CCOCC1` [Example 28-10]: “D (D represents pEC50>10 (EC50<0.1 nM))”.
Turning to `COC(=O)N[C@H](C(=O)N1C[C@@H](C)C[C@H]1c1nc(-c2ccc(-c3ccc(C(=O)Nc4ccc(N5CCN(C(=O)C6CC6)C[C@H]5C)nc4)cc3OC(F)(F)F)cc2)c[nH]1)C(C)C` [Example 4-35], the “Genotype 1a” value is “C (C represents pEC50 between and 9 and about 10, (EC50 between 1 nM and 0.1 nM))”.

Staying with this assay, now noted: Hepatitis C virus, read-out: Genotype 1a, HCV genotype 1a replicon.
On to `COC(=O)N[C@H](C(=O)N1C[C@@H](N(C)CCN)C[C@H]1c1nc(-c2ccc(-c3cc(Cl)c(NC(=O)c4ccc(N5CCN(C(=O)C(C)(C)C)C[C@H]5C)nc4)cc3OC(F)(F)F)cc2)c[nH]1)C(C)C` [Example 15-8], for which the EC50 fell in the range of 0.1 to 1 nM.
On the same count and under the same terms, the value for `COC(=O)N[C@H](C(=O)N1C[C@@H](N(C)C)C[C@H]1c1nc(-c2ccc(-c3ccc(C(=O)Nc4ccc(N5CCN(C(=O)C(C)(C)C)C[C@H]5C)nc4)cc3OC(F)(F)F)cc2)c(Cl)[nH]1)C(C)C` [Example 10-3] was under 0.1 nM; that for `COCCO[C@H]1C[C@@H](c2nc(-c3ccc(-c4cc(Cl)c(NC(=O)c5ccc(N6CCN(C(=O)C(C)(C)C)C[C@H]6C)nc5)cc4OC(F)(F)F)cc3)c[nH]2)N(C(=O)[C@@H](NC(=O)OC)C(C)C)C1` [Example 15-1] was 0.1 to 1 nM; that for `COC(=O)N[C@H](C(=O)N1C[C@@H](C)C[C@H]1c1nc(-c2ccc(-c3cc(Cl)c(NC(=O)c4ccc(N5CCN(C(=O)C(C)(C)C)C[C@H]5C)nc4)cc3OC(F)(F)F)cc2)c[nH]1)C1CCCCC1` [Example 13-39] was 1 to 10 nM.
On the same count and under the same terms, the value for `COC(=O)N[C@H](C(=O)N1C[C@@H](C)C[C@H]1c1nc(-c2ccc(-c3cc(Cl)c(NC(=O)c4ccc(N5CCN(C(=O)C(C)(C)CNC(=O)C6CC6)C[C@H]5C)nc4)cc3OC(F)(F)F)cc2)c[nH]1)C(C)C` [Example 12-37] was 0.1 to 1 nM.
As for `COC(=O)NC(C(=O)N1C[C@@H](C)C[C@H]1c1nc(-c2ccc(-c3ccc(C(=O)Nc4ccc(N5CCN(C(=O)C(C)(C)C)C[C@H]5C)nc4)c(Cl)c3OC(F)(F)F)cc2)c[nH]1)C1CCOCC1` (some centres unmarked) [Example 25-3], the EC50 lay in the range of 0.1 to 1 nM.
Same read-out and setting: next, `COC(=O)N[C@H](C(=O)N1C[C@@H](C)C[C@H]1c1nc(-c2ccc(-c3cc(Cl)c(NC(=O)c4ccc(N5CCN(C(=O)CC6CCOCC6)C[C@H]5C)nc4)cc3OC(F)(F)F)cc2)c[nH]1)C(C)C` [Example 12-28]: under 0.1 nM; `CCO[C@H]1C[C@@H](c2nc(-c3ccc(-c4cc(Cl)c(C(=O)Nc5ccc(N6CCN(C(=O)C(C)(C)C)C[C@H]6C)nc5)cc4OC(F)(F)F)cc3)c[nH]2)N(C(=O)[C@@H](NC(=O)OC)C(C)C)C1` [Example 6-27]: 0.1 to 1 nM; `COC(=O)N(C)[C@H](C(=O)N1C[C@@H](C)C[C@H]1c1nc(-c2ccc(-c3cc(Cl)c(NC(=O)c4ccc(N5CCN(C(=O)C(C)(C)CO)C[C@H]5C)nc4)cc3OC(F)(F)F)cc2)c[nH]1)C(C)C` [Example 13-45]: 0.1 to 1 nM.
In the case of `COC(=O)N[C@H](C(=O)N1C[C@@H](C)C[C@H]1c1nc(-c2ccc(-c3cc(Cl)c(NC(=O)c4ccc(N5CCN(C(=O)c6ccccn6)C[C@H]5C)nc4)cc3OC(F)(F)F)cc2)c[nH]1)C(C)C` [Example 12-7], the EC50 was 0.1 to 1 nM.
